Results as given in patent US6905699B2, “Insecticides” (Sumitomo Chemical Company, Limited, priority 2000, dated 2005).

Tested on: Silverleaf Whitefly (Bemisia argentifolii)
Experiment: Insecticidal test against silverleaf whitefly on cabbage seedlings (spray)
Type: in vivo
Settings: spray on infested cabbage seedlings, total of adults and larvae, 9 days after treatment
Source text: Insecticidal Test Against Silverleaf Whitefly (Bemisia argentifolii)
To each of an aqueous dilution in a designated concentration of an emulsifiable concentrate of Compound A (commercial name: Lano EC, manufactured by Sumitomo Chemical Co., Ltd.) and a flowable of Compound B (commercial name: Sanmite flowable, manufactured by Nissan Chemical Industries, Ltd.), and a mixture of the emulsifiable concentrate of Compound A in a designated concentration with the flowable of Compound B in a designated concentration, a spreading agent (Shin-Rino, manufactured by Nihon Nohyaku Co., Ltd.) was added to make the amount of the spreading agent to 1/3000 of volume to prepare a spray solution.
Cabbage seedlings planted in 3 ounces plastic cup were placed in a net cage containing many living silverleaf whiteflies for 24 hours, so that silverleaf whiteflies became parasitic on the cabbage seedlings. Each of the above-prepared test solutions was sprayed with a spray gun. The number of silverleaf whiteflies (i.e., the total number of adults and larvae) surviving on the cabbage seedlings was examined just before and after 9 days from the treatment.

Structure (SMILES)	Number of surviving insects after 9 days (50 ppm active ingredient)	Number of surviving insects after 9 days (12.5 ppm active ingredient)	Number of surviving insects after 9 days (100 ppm active ingredient)
CC(COc1ccc(Oc2ccccc2)cc1)Oc1ccccn1 (stereo not shown) [Compound A, 4-phenoxyphenyl 2-(2-pyridyloxy)propyl ether]	30		
CC(C)(C)c1ccc(CSc2cnn(C(C)(C)C)c(=O)c2Cl)cc1 [Compound B, 2-tert-butyl-5-(4-tert-butylbenzylthio)-4-chloropyridazin-3(2H)-one]	10	155	13
